# pIC50: −log10 of the molar value.
# Tested on: NCI-H196 complex spheroid growth, percent test/control
# Test: Anticancer human tumor NCI-H196 cell line growth inhibition [AhR];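 also: seven days of drug exposure starting three days after plating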;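 as to viability, T/C: 100% = DMSO vehicle control wells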
# Conditions: for viability, T/C: stronger effect = lower value
# In short: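 Spheroids combined tumor cells with HUVEC endothelial cells and human MSCs as stroma. AhR antagonists were paired with standard or investigational drugs, each dosed in half-log steps down from near clinical Cmax, or from 10 microM where Cmax was unknown.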
# [1] = curve of first compound, second compound 0.1 µM
# [2] = curve of first compound, second compound 0.316 µM
# [3] = curve of first compound, second compound 1 µM
# [4] = curve of first compound, second compound 3.16 µM
# [5] = curve of first compound, second compound 10 µM
# [6] = second compound 0.1 µM, first compound 0.000316 µM
# [7] = second compound 0.1 µM, first compound 0.001 µM
# [8] = second compound 0.1 µM, first compound 0.00316 µM
# [9] = second compound 0.1 µM, first compound 0.01 µM
# [10] = second compound 0.1 µM, first compound 0.0316 µM
# [11] = second compound 0.1 µM, first compound 0.1 µM
# [12] = second compound 0.316 µM, first compound 0.000316 µM
# [13] = second compound 0.316 µM, first compound 0.001 µM
# [14] = second compound 0.316 µM, first compound 0.00316 µM
# [15] = second compound 0.316 µM, first compound 0.01 µM
# [16] = second compound 0.316 µM, first compound 0.0316 µM
# [17] = second compound 0.316 µM, first compound 0.1 µM
# [18] = second compound 1 µM, first compound 0.000316 µM
# [19] = second compound 1 µM, first compound 0.001 µM
# [20] = second compound 1 µM, first compound 0.00316 µM
# [21] = second compound 1 µM, first compound 0.01 µM
# [22] = second compound 1 µM, first compound 0.0316 µM
# [23] = second compound 1 µM, first compound 0.1 µM
# [24] = second compound 3.16 µM, first compound 0.000316 µM
# [25] = second compound 3.16 µM, first compound 0.001 µM
# [26] = second compound 3.16 µM, first compound 0.00316 µM
# [27] = second compound 3.16 µM, first compound 0.01 µM
# [28] = second compound 3.16 µM, first compound 0.0316 µM
# [29] = second compound 3.16 µM, first compound 0.1 µM
# [30] = second compound 10 µM, first compound 0.000316 µM
# [31] = second compound 10 µM, first compound 0.001 µM
# [32] = second compound 10 µM, first compound 0.00316 µM
# [33] = second compound 10 µM, first compound 0.01 µM
# [34] = second compound 10 µM, first compound 0.0316 µM
# [35] = second compound 10 µM, first compound 0.1 µM
# [36] = second compound 0.1 µM, first compound 0.316 µM
# [37] = second compound 0.1 µM, first compound 1 µM
# [38] = second compound 0.316 µM, first compound 0.316 µM
# [39] = second compound 0.316 µM, first compound 1 µM
# [40] = second compound 1 µM, first compound 0.316 µM
# [41] = second compound 1 µM, first compound 1 µM
# [42] = second compound 3.16 µM, first compound 0.316 µM
# [43] = second compound 3.16 µM, first compound 1 µM
# [44] = second compound 10 µM, first compound 0.316 µM
# [45] = second compound 10 µM, first compound 1 µM
SMILES,pIC50 [1],pIC50 [2],pIC50 [3],pIC50 [4],pIC50 [5],"viability, T/C [8] [%]","viability, T/C [9] [%]","viability, T/C [10] [%]","viability, T/C [11] [%]","viability, T/C [14] [%]","viability, T/C [15] [%]","viability, T/C [16] [%]","viability, T/C [17] [%]","viability, T/C [20] [%]","viability, T/C [22] [%]","viability, T/C [23] [%]","viability, T/C [28] [%]","viability, T/C [29] [%]","viability, T/C [34] [%]","viability, T/C [35] [%]",further results
CC[C@@]1(O)C(=O)OCc2c1cc1n(c2=O)Cc2cc3c(CN(C)C)c(O)ccc3nc2-1 + Cc1ccccc1N=Nc1ccc(NC(=O)c2ccnn2C)c(C)c1,< 7.00,< 7.00,< 7.00,< 7.00,< 7.00,93.5,88.8,112,102,98.6,90.8,93.6,96.9,98.3,99.7,93.5,91.1,103,102,97,"viability, T/C [6]: 92.3%; viability, T/C [7]: 111%; viability, T/C [12]: 105%; viability, T/C [13]: 103%; viability, T/C [18]: 101%; viability, T/C [19]: 112%; viability, T/C [21]: 98.4%; viability, T/C [24]: 97.2%; viability, T/C [25]: 101%; viability, T/C [26]: 109%; viability, T/C [27]: 86.5%; viability, T/C [30]: 95%; viability, T/C [31]: 97.7%; viability, T/C [32]: 89%; viability, T/C [33]: 98.3%"
Cc1ccccc1N=Nc1ccc(NC(=O)c2ccnn2C)c(C)c1,,,,,,,,,,,,,,,,,,,,,"viability, T/C (compound 0.1 µM): 96.4% [middle of 20 runs]; viability, T/C (compound 0.316 µM): 98% [middle of 20 runs]; viability, T/C (compound 3.16 µM): 95.8% [middle of 20 runs]; viability, T/C (compound 10 µM): 93.3% [middle of 20 runs]; pIC50 (compound alone, run of 08/22/2022): < 5.00"
COc1ccc([C@@H](O)c2cc(-c3ncnc4cc(N5CCOCC5)ccc34)c(F)cc2Cl)nn1 + Cc1cncc(-c2nc(NCCc3c[nH]c4ccccc34)c3ncn(C(C)C)c3n2)c1,< 5.00,< 5.00,< 5.00,< 5.00,< 5.00,,,102,101,,,95.3,99.6,,104,111,105,108,69.8,90.4,"viability, T/C [36]: 97%; viability, T/C [37]: 91.4%; viability, T/C (second compound 0.1 µM, first compound 3.16 µM): 78.7%; viability, T/C (second compound 0.1 µM, first compound 10 µM): 84.7%; viability, T/C [38]: 101%; viability, T/C [39]: 97.7%; viability, T/C (second compound 0.316 µM, first compound 3.16 µM): 92.6%; viability, T/C (second compound 0.316 µM, first compound 10 µM): 80.7%; viability, T/C [40]: 97.6%; viability, T/C [41]: 87.3%; viability, T/C (second compound 1 µM, first compound 3.16 µM): 95.5%; viability, T/C (second compound 1 µM, first compound 10 µM): 84%; viability, T/C [42]: 106%; viability, T/C [43]: 94.2%; viability, T/C (second compound 3.16 µM, first compound 3.16 µM): 94%; viability, T/C (second compound 3.16 µM, first compound 10 µM): 94.2%; viability, T/C [44]: 92.2%; viability, T/C [45]: 77.7%; viability, T/C (second compound 10 µM, first compound 3.16 µM): 77.8%; viability, T/C (second compound 10 µM, first compound 10 µM): 71%"
CC1COCCN1c1cc(-c2ccnn2C)c2ccnc(-c3ccn[nH]3)c2n1 (stereo not given) + Cc1cncc(-c2nc(NCCc3c[nH]c4ccccc34)c3ncn(C(C)C)c3n2)c1,< 6.00,< 6.00,< 6.00,< 6.00,< 6.00,105,96.6,86.5,70,95.5,94.1,86.7,71.2,103,96.4,79.4,101,88.8,75.7,66,"viability, T/C [36]: 62.4%; viability, T/C [37]: 60.7%; viability, T/C [38]: 64.5%; viability, T/C [39]: 52.7%; viability, T/C [21]: 97.7%; viability, T/C [40]: 70.9%; viability, T/C [41]: 57.9%; viability, T/C [26]: 106%; viability, T/C [27]: 123%; viability, T/C [42]: 77.6%; viability, T/C [43]: 58.2%; viability, T/C [32]: 68.1%; viability, T/C [33]: 80.7%; viability, T/C [44]: 80%; viability, T/C [45]: 71.8%"
Cn1ncnc1C1c2n[nH]c(=O)c3cc(F)cc(c23)NC1c1ccc(F)cc1 (stereo not given) + Cc1ccccc1N=Nc1ccc(NC(=O)c2ccnn2C)c(C)c1,< 7.00,< 7.00,< 7.00,< 7.00,< 7.00,105,101,102,103,108,106,101,104,109,102,106,93.5,102,92.8,92.6,"viability, T/C [6]: 96.3%; viability, T/C [7]: 112%; viability, T/C [12]: 108%; viability, T/C [13]: 107%; viability, T/C [18]: 102%; viability, T/C [19]: 102%; viability, T/C [21]: 107%; viability, T/C [24]: 94.2%; viability, T/C [25]: 108%; viability, T/C [26]: 112%; viability, T/C [27]: 98.2%; viability, T/C [30]: 94.2%; viability, T/C [31]: 102%; viability, T/C [32]: 96.7%; viability, T/C [33]: 94.7%"
